Test results reported in patent US7169603B2, “α-MSH related compounds and methods of use” (MGI Pharma Biologics, Inc., priority 2000, dated 2007).
Square brackets hold non-standard residues; d marks the D form.

Assays:
[1] = system: Leptin −/− mice; test: Leptin -/- mouse model of obesity; assay type: in vivo; conditions: 1 μg daily for three weeks, intranasally, intrarectally or subcutaneously; compared to untreated mice; FIG. 18A
Protocol: Leptin −/− mice were used as a model of mammalian obesity to evaluate the effectiveness of an α-MSH analog and an α-MSH encoding nucleic acid to treat the condition. […] Leptin −/− obese mice were administered (either intranasally, intrarectally, or subcutaneously) with 1 μg of the α-MSH(4-13) analog daily for three weeks.

[2] = system: TNBS-treated mice; test: TNBS-induced Inflammatory Bowel Disease (IBD) model; assay type: in vivo; conditions: intranasal administration together with TNBS
Text: Inflammatory Bowel Disease (IBD) was induced in mice by the administration of trinitrobenzenesulphonic acid (TNBS), in 40% EtOH, to the mice. […] The IBD model is described in, for example, Keates et al. (2000) Gastroenterology 119:972–82.
The administration of EtOH alone (no TNBS) caused no weight loss in the animals. The “untreated” mice were given only the TNBS administration. The aMSH(4-13) mice were given an administration of TNBS, together with an intranasal administration of the aMSH(4-13) analog, which reduced the severity of the TNBS-induced weight loss.

Substance: Ac-CEH[dF]RWCKPV-NH2 (cysteine pairing not given here) [α-MSH(4-13) analog]
- weight gain [1]: a decrease in weight gain
- survival of TNBS-treated animals [2]: increased the survival
- TNBS-induced weight loss ([2]; FIG. 17A): decreased the weight loss
